# Data reported in a melting point compilation (Tetko et al.; mined from patent text by program, amines drawn as free bases though some values may be those of a salt).
row,SMILES,melting point
1,O=C(NCc1ccccc1)NCC(C(=O)O)C(F)(F)F (stereo not drawn),183 to 184 °C
2,CN1CC(CO)C=C2c3cccc4[nH]c(Br)c(c34)CC21 (stereo not drawn),193 °C
3,O=C(O)c1ccc(CCCOCCCCCCBr)cc1,70 to 71 °C
4,CCOc1nc(C(F)(F)F)cc(=O)n1-c1cc(C(=O)OC)c(Cl)cc1F,96 to 98 °C
5,Cc1nsc(OCC(F)(F)F)c1S(N)(=O)=O,148 to 149 °C
6,C=CC(=O)NCN1CCCC1=O,73 to 74 °C
7,C1=C(c2c[nH]c3ccccc23)CCN(CC2COc3ccc4ncncc4c3O2)C1 (stereo not drawn),204 to 207 °C
8,CCOC(=O)NC1(c2cccs2)CCC2(CC1)OCCO2,113 to 117 °C
9,CC(C)(C)c1ccc2c(c1O)C(=O)c1c(O)cccc1C2,126 to 127 °C
10,Cc1cc(C)c2c3c([nH]c2c1)C(=O)N=NC3=O,> 250 °C
11,CCOC(=O)C1=C(C)N(C(C)=O)C(c2csc(C)n2)=NC1C1(F)C=CC=CC1Cl (stereo not drawn),164 to 166 °C
12,CC(C)Cn1cnc2c(N)nc3cccnc3c21,230 to 232 °C
13,CC(C)n1c(=O)oc2cc([N+](=O)[O-])cc(F)c21,122 to 123 °C
14,Cc1ccc2c(c1)[nH]c(=O)n2CCCN1CCC2(CC1)C(=O)NCN2c1ccccc1,256 °C
15,CC(=O)C=Cc1cc2ccccc2o1,100 to 101 °C
16,COc1ccc(OCC(O)COc2cccc(O)c2C(C)=O)cc1 (stereo not drawn),100 to 102 °C
17,CCOc1nc(N)nc2c1CCC2,134 to 135 °C
18,Cn1c(C(F)(F)F)cc(=O)n(-c2cc(F)c([N+](=O)[O-])cc2F)c1=O,150 °C
19,COc1ccc2cc(C#N)sc2c1,82 to 83 °C
20,CC(=O)c1ccc2occ(C#N)c(=O)c2c1,170 to 172 °C
21,CCC(CC)N(Cc1ccc(C(=O)O)cc1)S(=O)(=O)c1ccc(OC)cc1,86 to 87 °C
22,CSCC[C@H](NC(=O)OC(C)(C)C)C(=O)NCC(=O)Oc1c(Cl)c(Cl)c(Cl)c(Cl)c1Cl,169 to 171 °C

row,SMILES,melting point
1,COc1c(C)c(C)c(OC)c(C(O)(c2ccccn2)C(C)C)c1C (stereo not drawn),99 to 100 °C
2,OC1CSC(Oc2ccc(F)nc2)C(O)C1O (stereo not drawn),209 to 210 °C
3,CN(C)C(=O)Cc1ccc(CC(=O)O)cc1,163 to 165 °C
4,CC(Cl)CCC(=O)Nc1c(C#N)cnn1-c1ccc(Cl)c(Cl)c1Cl (stereo not drawn),126 to 127 °C
5,COc1cc2c(cc1OC)CC(=O)NC=C2,234 to 237 °C
6,O=C(NN1CCN(CCc2c[nH]c3ccccc23)CC1)c1ccccc1,227 to 229 °C
7,CC1NC(=O)NN=C1c1ccccn1 (stereo not drawn),212 to 214 °C
8,CCOC(=O)CCSc1nnsc1-c1ccccc1,57.5 to 58.5 °C
9,Nc1nc2c(ncn2CCC(COC=O)COC=O)c(=O)[nH]1,195 to 198 °C
10,N=C(N)Nc1nc(CCCCNC(N)=N[N+](=O)[O-])cs1,180 to 181 °C
11,CSc1nc(Cl)c(C#N)c(Cl)n1,107 °C
12,O=C(Nc1nc(NC(=O)c2cccnc2)nc(NC(=O)c2cccnc2)n1)c1cccnc1,276 to 278 °C
13,CCOC(=O)[C@H](Cc1cc(OC)c(OC)cc1I)NC=O,151 to 152 °C
14,C=CCOc1cccc2nc(C)sc12,38 to 39 °C
15,CC(C)(C)OC(=O)NC(COCCCN)(COCCCN)COCCCN,96 to 98 °C
16,CC(=O)OCCOc1ncc(Cl)c(N)c1Cl,76 to 77 °C
17,COc1ccc(-c2cc(=Nc3c(C)cc(C)cc3C)n(C)c(C)n2)cc1OC,163 to 168 °C
18,CCS(=O)c1nc2ccc([N+](=O)[O-])cc2s1 (stereo not drawn),145 to 149 °C
19,CN1CCN(Cc2cc(N)cc(C(F)(F)F)c2)CC1,98 to 99 °C
20,Cn1nc(-c2cccc(C(F)(F)F)c2)cc1C(=O)O,198 to 199 °C
21,CN(C)c1ccc(C(NCCO)C(O)c2ccccc2)cc1 (stereo not drawn),147 to 148 °C
22,CNC(=S)NS(=O)(=O)c1cc(CCNC(=O)c2cc(C(C)(C)C)ccc2OC)ccc1OCCOC,61 °C

row,SMILES,melting point
1,CSC(=CC(=O)C(F)(F)F)SC,97 °C
2,CC[C@H](C)CNC(=O)[C@@H](C[C@H](O)[C@H](CC1CCCCC1)NC(=O)[C@H](Cc1cscn1)NC(=O)[C@@H](CC(=O)N1CCOCC1)Cc1ccccc1)C(C)(C)O,80 to 82 °C
3,O=Cc1cc(Cl)cc(C=O)n1,163 °C
4,CCOC(=O)c1cnn(-c2ccc(OCC(C)(C)COC(=O)c3ccccc3)c(C#N)c2)c1,112 to 114 °C
5,CS(=O)N1CCSc2cccc(Cl)c2C1 (stereo not drawn),82 to 84 °C
6,CC(=O)c1c(O)cc(O)cc1O,218 to 219 °C
7,CNC(=S)C1(c2cccc(C)n2)SCCCS1,168 °C
8,COC(=O)C=C1CC(NC(=O)OC(C)(C)C)C1 (stereo not drawn),79 to 82 °C
9,Cc1nc(NC(CO)C(C)C)c2c(n1)c(C)nn2C (stereo not drawn),166 to 168 °C
10,O=C(NC1CCOCC1)c1cnccc1C(F)(F)F,149 to 150 °C
11,CCOC(=O)c1nn(-c2ccc(CP(=O)(OCC)OCC)cc2)nc1C,60 to 62 °C
12,Cc1ccc(S(=O)(=O)OC[C@H](CNC(=O)c2ccc(Cl)s2)OC(=O)Nc2ccc(N3CCOCC3=O)cc2)cc1,142 °C
13,O=C(O)CNC(=O)COc1nc(F)c(Cl)cc1Cl,155 to 157 °C
14,COc1cc(F)cnc1OCC#Cc1ccc(Cl)nc1,101 to 102 °C
15,NS(=O)(=O)c1cc2c(s1)CNCC2,172 to 175 °C
16,CN(C)C=CC(=O)c1cccc(NC=O)c1,165 to 167 °C
17,CCOC(=O)COc1nccc(-c2ccccn2)n1,48 to 53 °C
18,CC(NC(=O)C(C)(C)CCl)c1ccc(Cl)cc1 (stereo not drawn),95 to 96 °C
19,Cc1ccnc2c1C(=O)CC(c1ccco1)C2 (stereo not drawn),70 to 71 °C
20,CCc1cc2c(cc1OCc1ccccc1)CCC1C2CCC2(C)C(CCO[Si](c3ccccc3)(c3ccccc3)C(C)(C)C)CCC12 (stereo not drawn),48 to 50 °C
21,c1ccc(C(CCCc2c[nH]cn2)c2ccccc2)cc1,204 to 206 °C
22,CCC1(CCCCCBr)C(=O)Nc2ccc(C)cc21 (stereo not drawn),72 to 73 °C

# Second part, the molecule after the results:
row,melting point,SMILES
1,80 to 82 °C,CCOP(=O)(O)Cc1ccc(NC(=O)CCc2cnoc2-c2ccccc2)cc1
2,174 to 176 °C,Cc1cc(-c2cc(O)c(SCc3ccccc3)c(=O)o2)cc(C)c1O
3,163 to 167 °C,COC(=O)c1cccc2nc(N3CCOCC3)n(Cc3ccc(-c4ccccc4-c4nnn[nH]4)cc3)c12
4,122 to 123 °C,CC(C)(C)OC(=O)N[C@@H](Cc1ccc(-c2ccccc2)cc1)C(=O)O
5,180 to 182 °C,COC(=O)c1cc(-c2ccc(OC)c(Cl)c2)nn(CC=Cc2ccc(Cl)cc2)c1=O
6,182 to 183 °C,Cn1nc2c(c1S(C)(=O)=O)CCCN2c1ccc(Cl)cc1Cl
7,97 to 98 °C,CCOC(=O)C1CSC(c2nsc3ccc(-n4c(=O)cc(C(F)(F)F)n(C)c4=O)cc23)N1 (stereo not drawn)
8,180 to 182 °C,COc1ncc(Cc2nnc(Nc3ccc(C(C)(C)C)cc3)c3ccccc23)cc1-c1ccco1
9,163 to 166 °C,O=C1CCC(N2C(=O)c3ccccc3C2=O)c2ccsc21 (stereo not drawn)
10,163 to 164 °C,COCCOCc1c(CN(C)CC(O)c2ccc(C#N)s2)sc2c(=O)c(C(=O)NCc3ccc(Cl)cc3)cn(C)c12 (stereo not drawn)
11,174 to 175 °C,O=c1c2c(cnn1-c1ccccc1)C(Cc1ccccc1)NCCS2 (stereo not drawn)
12,185 to 186 °C,COc1cc(OC)c(-c2cccs2)cc1C=CC(=O)c1ccc(S(=O)(=O)Nc2nnn[nH]2)cc1
13,203 °C,CCCOc1ccc(S(=O)(=O)NCC2(NCC)CCCCCC2)cc1-c1nc2c([nH]1)c1nncn1c(=O)n2CCC
14,99 to 102 °C,CCOC(=O)c1noc([C@@H](Cc2ccc3ccccc3c2)N(C)C(=O)OC(C)(C)C)n1
15,144 to 145 °C,CC(=O)Nc1ccc(N2C(=O)C3CCC2n2c(=O)n(-c4ccccc4)c(=O)n23)cc1 (stereo not drawn)
16,289 to 291 °C,Cc1c(S(=O)(=O)Nc2ccc(-c3nc(C(=O)O)co3)cc2S(C)(=O)=O)sc2ccc(F)cc12
17,95 to 103 °C,CCc1nc2c(C#N)cccc2n1-c1ccc(CCNC(=O)NS(=O)(=O)c2ccc(C)cc2)cc1
18,105 to 108 °C,Cc1ccc(S(=O)(=O)N2CCC(Sc3ccccc3)CC2)cc1
19,340 °C,CC(=O)Nc1ccc2c(c1)C(=O)c1cc(NC(C)=O)ccc1C2=O

row,melting point,SMILES
1,153 to 156 °C,C=C(C(=O)OC)c1ccc2c(=O)c3ccccc3ccc2c1
2,172 °C,CC#CCOc1ccc(S(=O)(=O)C2(C(=O)O)CCN(Cc3ccc(OCCN4CCCCC4)cc3)CC2)cc1
3,158 to 159 °C,Cc1nc(Cc2ccccc2)c(CO)c(CO)c1O
4,213 to 214 °C,CC(C)n1nc(-c2c(NCc3ccco3)nc(N)nc2-c2ccccc2)ccc1=O
5,201 °C,CCc1ccc(Cn2cc(-c3cn(C4CC(O)C(CO)O4)c(=O)[nH]c3=O)nn2)cc1 (stereo not drawn)
6,149 °C,Cc1ccc(Cn2[nH]c(N)cc2=O)cc1
7,160 to 165 °C,CC(C)(C)OC(=O)N[C@@H]1CN(c2ccccc2)c2ccccc2NC1=O
8,> 250 °C,CNC1Oc2cc(Cl)cc(-c3ccccc3C)c2O1 (stereo not drawn)
9,175 to 177 °C,O=C(O)c1cc(S(=O)(=O)NCCc2ccccc2Cl)ccc1Cl
10,134 to 135 °C,Fc1ccc2c(c1)OCc1c(-c3nc(C4CCCC4)no3)ncn1-2
11,123 to 128 °C,O=C(O)CC1c2ncccc2S(=O)(=O)N1c1ccccc1 (stereo not drawn)
12,102 to 104 °C,CC(C)N(C)c1nccc(Oc2ccc(NC(=O)c3cc(F)cc(N4CCCCC4)c3)c3ccccc23)n1
13,90 to 94 °C,CSc1c(C(Cc2ccc(F)cc2)C(=O)O)ccc2c3ccccc3n(Cc3ccc(F)cc3)c12 (stereo not drawn)
14,134 to 135 °C,CCNC(=O)c1c([Si](C)(C)C)ccc(-c2ccccc2)c1Cl
15,240 to 242 °C,O=C1Nc2ccccc2N(C(=O)CN2CCOCC2)c2ncncc21
16,215 to 220 °C,O=C1CC2(CCCC2)C(=O)N1c1cc(Cc2n[nH]c(=O)c3ccccc23)ccc1F
17,136 to 137 °C,O=C1N(Cc2noc(C3CC3)n2)c2ccccc2C12COc1cc3c(cc12)OCO3 (stereo not drawn)
18,143 to 144 °C,COC(=O)c1cc(OCc2ccc(OCc3nc(-c4ccccc4)oc3C)c(OC)c2)nn1-c1ccccc1
